Experimental data from a melting point compilation (Tetko et al.; mined from patent text by program, amines drawn as free bases though some values may be those of a salt).

| SMILES | melting point |
| --- | --- |
| COc1cc(C(=O)N(C(C)C)C2CCCCC2)ccc1Oc1cc(OC)c(OC)c(OC)c1 | 126 to 128 °C |
| Cc1cc2c(s1)C(C(=O)Nc1ccccc1)C(=O)N(C)S2(=O)=O (centres undefined) | 182 to 184 °C |
| COc1cccc(CC[C@H](O)CO[Si](C)(C)C(C)(C)C)c1O | 44 to 46 °C |
| COC(=O)CC1c2cc(OC)ccc2N(c2nc3ccccc3nc2Cl)C1C (centres undefined) | 155 to 157 °C |
| CC(C)(C)c1ccc(Sc2ccsc2CN(O)C(N)=O)cc1 | 144 to 146 °C |
| O=C1C(c2ccc(Cl)cc2)Sc2ccc3ccccc3c2N1CCCCl (centres undefined) | 110 to 112 °C |
| CCn1c(N)c(C(=O)NC)c(=O)c2ccc(-c3ccc(NS(=O)(=O)c4cccc(Cl)c4Cl)c(F)c3)nc21 | 333 °C |
| CCN1CC(c2ccccc2)=C(OCCN2CCCCC2)C1=O | 120 °C |
| COC(=O)c1cc(NC(C)=O)ccc1OC | 132 to 134 °C |
| CCNC(=O)c1c(Cl)cccc1[Si](C)(C)C | 105 to 107 °C |
| COC(=O)c1cc(N2CCC2)c(C(F)(F)F)cc1[N+](=O)[O-] | 127 to 136 °C |
| CC(C)C(=O)Oc1ccc2c(c1Cl)Sc1ccccc1N2 | 155 °C |
| CCCOCCN(CC)c1ccc(-c2ccc3c(c2)C=C(C(=O)O)CCN3C=O)cc1 | 169 to 171 °C |
| CCOC(=O)Cc1sc(Sc2cc3ccccc3c(Cl)n2)nc1C | 115 to 117 °C |
| Cc1[nH]cnc1CC1CCc2c(c3ccccc3n2C)C1=O (single isomer, unassigned; (+)) | 230 to 232 °C |
| COC1C=C(C)C(=O)CC(C)(C)C1OC(=O)c1ccc(N)cc1 (centres undefined) | 138 to 161 °C |
| COC(=O)c1c(C=O)cccc1Oc1nc(OC)cc(OC)n1 | 91 to 93 °C |
| CC(=O)c1c(N(C)C)nn2ccccc12 | 59.5 to 60 °C |
| COc1ccc2c(c1)C13CCN(C#N)C(C2)C1(OC)CCC(=O)C3 (centres undefined) | 172 to 176 °C |
| Cc1nc(Br)c2n1-c1ccc(Cl)cc1C(c1ccccc1F)=NC2 | 201 to 205 °C |
| O=C1C2=C(CCCC2)C(=O)N1c1ccc(F)cc1F | 73 to 74 °C |
| Cc1ccc(C2=Cc3cc(C(=O)N[C@H]4CC[C@H](CN(C)C5CCOCC5)CC4)ccc3OC2)cc1 | 205 to 207 °C |
| CC(=O)C(=Cc1cc(O)c(O)c([N+](=O)[O-])c1)c1ccccc1 | 170 to 176 °C |
| CCOC(=O)c1c(C(F)(F)F)nc(C(F)F)c(C(=O)OC)c1NC1CC1 | 68 to 69.5 °C |
| N#CC(C(=O)Nc1ccccn1)C(=O)c1nn(-c2ccccc2)c2c1CSc1ccccc1-2 (centres undefined) | 258 to 260 °C |

| SMILES | melting point |
| --- | --- |
| CCCN(C(C)C)C(C)CC1=C(c2ccc(OC)cc2)CCCNC1=O (centres undefined) | 90 to 92 °C |
| O=C(N[C@@H]1CN2C(=O)N(c3cc(Cl)nc(Cl)c3)C(=O)[C@@]2(Cc2ccc(OC(F)(F)F)cc2)C1)c1ccncc1 | 148 °C |
| CN(C(=O)COc1cc(-c2ccccc2)nc2ccccc12)C(C)(C)C | 90 °C |
| CC(=O)Nc1ccc(OC(C)=O)c(C(=O)Nc2cccc3[nH]ccc23)c1 | 263 °C |
| CCCOc1cc2c(cc1C=O)C(C)(C)CCC2(C)C | 51 to 52 °C |
| CC(C)n1c(CC[C@@H](O)C[C@@H](O)CC(=O)O)c(-c2ccc(F)cc2)c(-c2ccc(F)cc2)c1C(=O)NCc1ccc(C(=O)O)cc1 | 140 to 142 °C |
| Cc1ccc(C)c(C(=O)NCCC23CC4CC(CC(C4)C2)C3)c1 | 153 °C |
| CCOC(=O)C1=C(C)Nc2ccnn2C1c1ccccc1C(F)(F)F (centres undefined) | 182 to 183 °C |
| O=C(O)CCCNC(=O)c1n[nH]cc1NC(=O)c1ccccn1 | 227 to 228 °C |
| Cc1cn(C2=CCC(O)CC2)c(=O)[nH]c1=O (racemic) | 223 °C |
| O=c1oc(-c2ccc(NS(=O)(=O)c3ccccc3)cc2)cc(O)c1SCCc1ccccc1 | 89 to 91 °C |
| COC(=O)C=Cc1ccc(-c2ccc(C=CC(=O)OC)cc2C(F)(F)F)c(C(F)(F)F)c1 | 158 to 161 °C |
| COc1ccc(-c2cc3cc(OC)cc(CBr)c3o2)cc1 | 158 to 160 °C |
| ON=Cc1cccc(Oc2ccccc2)c1 | 45 to 46 °C |
| CCOc1ccccc1-c1cc(NC(=O)C2CCN(C(C)C)CC2)ncn1 | 173 to 175 °C |
| Cc1ccc(OCC(=O)N(Cc2nc(-c3ccc(C)cc3)no2)C(C)C)cc1 | 142 to 143 °C |
| COc1ccc(CN(CCN(C)CCCCCCN=C(NC#N)NCCSCc2csc(NC(=N)N)n2)c2ccccn2)cc1 | 52 °C |
| CC(=O)Nc1c(S(N)(=O)=O)cc(C(=O)O)c(Nc2ccccc2)c1NCc1ccco1 | 250 °C |
| C=CC1(O)CN2CCC1CC2 (centres undefined) | 76 to 80 °C |
| O=C(Nc1nc(=O)[nH]s1)c1ccc2ccccc2c1 | > 250 °C |
| CC(C)=NNc1cc2c(nn1)CCN(C(=O)CC(c1ccccc1)c1ccccc1)C2 | 172 to 175 °C |
| CCN(CC)CCNC(=O)N1CCCC(S(=O)(=O)c2ccc(C)cc2)C1 (centres undefined) | 116 to 118 °C |
| NS(=O)(=O)c1ccc(NC(=O)Nc2ccc(I)cc2)cc1 | 275 to 277 °C |
| O=C(O)Cc1cc(=O)oc2cc(O)ccc12 | 210 °C |
| c1ccc(-c2cc3c(nn2)-c2ccccc2CN3)cc1 | 250 to 252 °C |

| SMILES | melting point |
| --- | --- |
| CN(C)CCC(=O)Nc1ccc2c(c1)C(=O)c1cc(NC(=O)CCN(C)C)ccc1C2=O | 196 °C |
| CC1(CO)Cc2nnc(-c3ccc(-c4ccc(F)cc4)cc3C(F)(F)F)n2CCS1 (centres undefined) | 202 to 204 °C |
| O=C1c2cc(Cl)c(Cl)cc2C(=O)N1CCCl | 144 to 145 °C |
| COC(=O)C12CC(C(=O)OC)(C1)C2 | 92 °C |
| COc1ccc(C[C@@H](CO)NC(=O)c2cccnc2Br)cc1OC | 136 to 138 °C |
| O=Cc1cc2ccccc2c(-c2ccc(I)cc2)n1 | 243 to 245 °C |
| CCc1cc2c(Cl)cc(F)c(-n3c(=O)cc(C(F)(F)F)n(C)c3=O)c2o1 | 142 to 143 °C |
| CCCSc1sc(C(N)=O)c2c1-c1c(cnn1C)CC2 | 112 to 113 °C |
| CC(C)C(NC(=O)Cn1cc(Cc2ccc(C(F)(F)F)cc2)cc(NC(=O)OCc2ccccc2)c1=O)C(=O)C(F)(F)F (centres undefined) | 61 to 65 °C |
| Cc1[nH]c(=O)c2c(ccc3nc(Nc4c(Cl)cccc4Cl)n(C)c32)c1CC(=O)N1CCOCC1 | > 300 °C |
| O=C1CCC(c2ccccc2)(c2ccccc2)[C@@H]2CN(C(=O)Cc3ccsc3)C[C@H]12 (racemic) | 224 °C |
| Cc1c(C=O)cccc1C(=O)c1ccc(Cl)cc1 | 68 °C |
| CCN(CC)C(=O)c1nc[nH]n1 | 173 to 174 °C |
| COc1ccc(S(=O)(=O)C2(CCCCC#Cc3ccc(Cl)cc3)SC(=O)NC2=O)cc1 (centres undefined) | 145 to 148 °C |
| C#CC[C@H]1CC[C@H](C(=O)O)CC1 | 84 to 86 °C |
| O=C(CN1CC=CCC1)NC(=O)N1CCN2C(=O)OC(c3ccccc3)(c3ccccc3)C2C1 (centres undefined) | 156 to 157 °C |
| O=C1c2ccccc2C(=O)N1CCC(=O)N(c1ccccc1)c1ccccc1 | 140 °C |
| CCC(Oc1cnc(Cl)c(Cl)c1)C(=O)NC(C)(C)C#CCO (centres undefined) | 129 to 131 °C |
| CCN(CC)C(=O)c1ccc(C)c(-c2nc(NCCNC(C)C)nc3c2CNC(=O)N3c2c(F)cccc2F)c1 | 89 to 91 °C |
| O=C(O)CCc1ccc(OCc2sc3ccccc3c2Cl)cc1 | 136 to 137 °C |
| CCN(CC)C(=O)c1cccc(C=O)c1 | 115 to 119 °C |
| Nc1ccc(OCc2ccc(F)cc2)cc1F | 42 to 43 °C |
| NC1=NC2=NN(c3ccco3)NC2=C2N=CN(Cc3ccc(F)cc3)N12 | 266 to 268 °C |
| CC(=O)Nc1cccc(Nc2ncnc3[nH]cc(C(=O)c4cccc(F)c4)c23)c1 | > 300 °C |
| Oc1cccc(-c2n[nH]c3c2Cc2ccccc2-3)c1 | 302 to 304 °C |

| SMILES | melting point |
| --- | --- |
| CCCCCCCN(CCc1ccc(OC(C)(C)C(=O)O)cc1)C(=O)Nc1ccc(F)cc1 | 162 to 164 °C |
| COC(=O)c1sc(OC)c(Cl)c1O | 109 to 111 °C |
| CCOC(=O)CCNC(=O)c1[nH]c(C)c(-c2nc3ccc(C(=O)c4ccccc4)cc3[nH]2)c1C | 135 to 137 °C |
| O=C(Cc1ccc([N+](=O)[O-])cc1)c1ccc([N+](=O)[O-])cc1 | 131 to 133 °C |
| O=C(O)C(Cc1ccccc1)C(=O)N[C@H](CO)Cc1c[nH]c2ccccc12 (some centres undefined) | 130 to 131 °C |
| COc1ccc(CNc2c(C)c(C)c3c(c2C)C(c2ccc(C)cc2)C(C)(C)O3)cc1 (centres undefined) | 97 to 98 °C |
| CC(N(C(=O)c1ccc(C(F)(F)F)cc1)[C@H](C)C(=O)O)[C@](O)(Cn1cncn1)c1ccc(F)cc1F (mixture of isomers) | 219 to 221 °C |
| CC(=O)Oc1ccccc1C1SC[C@@H](C(=O)O)N1C(=O)CCSC(C)=O (some centres undefined) | 144 to 145 °C |
| CN(C)C(=O)c1cnn(-c2ccc(Br)cc2)c1C#N | 131 to 133 °C |
| Oc1cccc(Cc2n[nH]c3ccccc23)c1 | 170 to 172 °C |
| FC(F)(F)c1ccc(-c2nc(Cl)cc(-c3ccccc3)n2)cc1 | 82 to 84 °C |
| CCCc1nnc2ccc(-c3ccc(C(F)(F)F)cc3)nn12 | 173 to 175 °C |
| CCN(CC)CCN(CC)C(=O)c1ccc(Nc2ccnc3c(C(F)(F)F)cccc23)cc1 | 151 to 152 °C |
| CS(=O)CCNC(=O)c1cccc(-c2ccc3c(c2)C(c2cc(Cl)ccc2Cl)CC3)c1 (centres undefined) | 136 to 138 °C |
| CCC1(CC)C(=O)Nc2ccc(-c3cccc(Cl)c3)cc21 | 156 to 159 °C |
| CCOC(=O)c1csc(C)c1N(CC)c1nc(C)cc(C)n1 | 99 to 100 °C |
| Nc1ccc(CO)cc1[N+](=O)[O-] | 100 to 101 °C |
| CC(Oc1ccc(C2CCOCC2)cc1)C(=O)O (centres undefined) | 156 °C |
| N#Cc1cccc(Oc2ccccc2)c1C#N | 110 to 112 °C |
| C#Cc1cnn2c(C(F)(F)F)cc(-c3ccc(C(F)(F)F)cc3)nc12 | 138 °C |
| CCOC(=O)c1sc(-c2ccc3c(=O)n(CC(C)C)c(CNC(=O)OC(C)(C)C)c(-c4ccccc4)c3c2)nc1C | 201 to 202 °C |
| O=C1C(O)=C(c2ccc3ccccc3c2)C(=O)C(O)=C1c1ccc2ccccc2c1 | 328 to 329 °C |
| COC(=O)C1CC1c1ccc(OCc2cccc(Oc3ccccc3)c2)cc1 (centres undefined) | 55 to 56 °C |
| CC(C)(C)OC(=O)[C@@H]1CNC(=O)N1C(=O)OCc1ccccc1 | 138 to 139 °C |
